The results in this text go back to publication doi:10.1101/2022.01.01.474692v1 (bioRxiv, 2022).

This data set is described as follows: Solubility and behaviour in water. Type of data set: physicochemical.

Where no end group is shown, it is not given here.

In the case of GNNQQNY [GNNQQNY], the “behaviour of solution in pure water” value (solubilised in pure water, pH not lowered) is reported as “tends to spontaneously aggregate”. The solubility in water result (water, no solvent pre-treatment, solution clear and transparent) is “freely soluble in water”.
